In publication PMC3973950, “Synthesis of 5-arylidine amino-1,3,4-thiadiazol-2-[(N-substituted benzyol)]sulphonamides endowed with potent antioxidants and anticancer activity induces growth inhibition in HEK293, BT474 and NCI-H226 cells” (Medicinal Chemistry Research, 2013):

Key:
[1] = test system: BT474 (breast cancer cell line); test: In vitro cytotoxicity by MTT assay, BT474; format: cell-based; conditions: Homo sapiens, 72 h; for cytotoxicity at 0.005 µM: BT-474, 0.005 μM; for cytotoxicity at 0.005 µM / cytotoxicity at 0.015 µM / cytotoxicity at 0.045 µM / cytotoxicity at 0.13 µM / cytotoxicity at 0.41 µM / cytotoxicity at 1.23 µM / cytotoxicity at 3.7 µM / cytotoxicity at 11.11 µM / cytotoxicity at 33.33 µM / cytotoxicity at 100 µM: read-out: % cytotoxicity (100 − % cell survival) of BT474 cell line; for cytotoxicity at 0.015 µM: BT-474, 0.015 μM; for cytotoxicity at 0.045 µM: BT-474, 0.045 μM; for cytotoxicity at 0.13 µM: BT-474, 0.13 μM; for cytotoxicity at 0.41 µM: BT-474, 0.41 μM; for cytotoxicity at 1.23 µM: BT-474, 1.23 μM; for cytotoxicity at 3.7 µM: BT-474, 3.7 μM; for cytotoxicity at 11.11 µM: BT-474, 11.11 μM; for cytotoxicity at 33.33 µM: BT-474, 33.33 μM; for cytotoxicity at 100 µM: BT-474, 100 μM
Procedure: (§1) The cancer cell line cultures of HEK 293 ([…]), BT474 (breast cancer cell line) and NCI-H226 (lung cancer) were obtained from Pasteur Institute of India, Coonoor, India, and were cultured in RPMI-1640 and 10 % heat-[…] New born calf serum with antibiotics [penicillin ([…]), streptomycin (100 μg/mL) and amphotericin B (25 μg/mL)]. The cells were maintained at 37 °C in a humidified atmosphere with 5 % CO2 and were subcultured twice a week.
(§2) The monolayer cell culture (100 μL) was trypsinized, and the cell count was adjusted to […] using medium containing 10 % new born calf serum. To each well of the 96-well microtitre plate, the diluted cell suspension (approximately 10,000 cells) (0.1 mL) was added and kept for 24 h in incubator at 37 °C in 5 % CO2 atmosphere for cell monolayer formation. After 24 h, when a partial monolayer was formed at the bottom of the well, the supernatant was flicked off, the monolayer was washed once, and different drugs, i.e. synthesized compounds (100 μL), were added to the cells in microtitre plates. The plates were then incubated at 37 °C for 3 days in 5 % CO2 atmosphere, and microscopic examination was carried out and observations recorded every 24 h. After 72 h, the sample solution in the wells was flicked off; MTT dye ([…]) was added to each well; plates were gently shaken and incubated for 4 h at 37 °C in 5 % CO2 incubator. The supernatant was removed and propanol (50 μL) was added; the plates were gently shaken to solubilize the formed formazan. The absorbance was measured using a microplate reader at a wavelength of 490 nm (Edmondson et al., [1988]; Prasad et al., [2005]; Chiruvella et al., [2008]; Chang et al., [2007]).

[2] = In vitro cytotoxicity by MTT assay, NCI-H226; format: cell-based; conditions: human, NCI-H226 lung cancer cells, 0.015 μM, read-out: % Cytotoxicity (100 − % cell survival) of NCI-H226 cell line
Procedure: as §1, §2

[3] = test system: NCI-H226 (lung cancer cell line); test: In vitro cytotoxicity by MTT assay, NCI-H226; format: cell-based; conditions: Homo sapiens, 72 h, read-out: % Cytotoxicity (100 − % cell survival) of NCI-H226 cell line; for cytotoxicity at 0.005 µM: NCI-H226, 0.005 μM; for cytotoxicity at 0.045 µM: NCI-H226, 0.045 μM; for cytotoxicity at 0.13 µM: NCI-H226, 0.13 μM; for cytotoxicity at 0.41 µM: NCI-H226, 0.41 μM; for cytotoxicity at 1.23 µM: NCI-H226, 1.23 μM; for cytotoxicity at 3.7 µM: NCI-H226, 3.7 μM; for cytotoxicity at 11.11 µM: NCI-H226, 11.11 μM; for cytotoxicity at 33.33 µM: NCI-H226, 33.33 μM; for cytotoxicity at 100 µM: NCI-H226, 100 μM
Procedure: as §1, §2

[4] = In vitro cytotoxicity by MTT assay, HEK 293; format: cell-based, human; conditions: human, HEK 293 cells, read-out: % cytotoxicity (100 − % cell survival) of HEK 293 cell line
Procedure: as §1, §2

Structure (SMILES)	cytotoxicity at 0.005 µM [1] [%]	cytotoxicity at 0.015 µM [1] [%]	cytotoxicity at 0.045 µM [1] [%]	cytotoxicity at 0.13 µM [1] [%]	cytotoxicity at 0.41 µM [1] [%]	cytotoxicity at 1.23 µM [1] [%]	cytotoxicity at 3.7 µM [1] [%]	cytotoxicity at 11.11 µM [1] [%]	cytotoxicity at 33.33 µM [1] [%]	cytotoxicity at 100 µM [1] [%]	cytotoxicity at 72 h, 0.015 µM [2] [%]	cytotoxicity at 0.005 µM [3] [%]	cytotoxicity at 0.045 µM [3] [%]	cytotoxicity at 0.13 µM [3] [%]	cytotoxicity at 0.41 µM [3] [%]	cytotoxicity at 1.23 µM [3] [%]	cytotoxicity at 3.7 µM [3] [%]	cytotoxicity at 11.11 µM [3] [%]	cytotoxicity at 33.33 µM [3] [%]	cytotoxicity at 100 µM [3] [%]	further results
Nc1nnc(S(=O)(=O)NC(=O)c2ccc([N+](=O)[O-])cc2)s1 [Compound 4e]	30.9	31	31.8	32.3	33.1	35.7	37	37.2	38.9	40.4	28.1	27.3	28.9	29.6	29.9	30.6	31.3	32.2	33.3	34.6	cytotoxicity at 72 h, 0.005 µM [4]: 30.6%; cytotoxicity at 72 h, 0.015 µM [4]: 31.6%; cytotoxicity at 72 h, 0.045 µM [4]: 34.1%; cytotoxicity at 72 h, 0.13 µM [4]: 34.8%; cytotoxicity at 72 h, 0.41 µM [4]: 35.4%; cytotoxicity at 72 h, 1.23 µM [4]: 37.1%; cytotoxicity at 72 h, 3.7 µM [4]: 38.9%; cytotoxicity at 72 h, 11.11 µM [4]: 39.1%; cytotoxicity at 72 h, 33.33 µM [4]: 40%; cytotoxicity at 72 h, 100 µM [4]: 40.2%
Nc1nnc(S(=O)(=O)NC(=O)c2cccc([N+](=O)[O-])c2)s1 [Compound 4f]	37.6	39	41.3	43.8	45.3	48.5	50.1	52.4	55.3	59.3	38.6	37.2	39.7	41.6	42.9	45.8	46.5	48.3	50.1	52.9	CC50 ([1]; BT-474, BT474, concentration at which 50 % of the cells are dead, read-out: CTC50 (cytotoxicity concentration)): 1560 nM; cytotoxicity at 72 h, 0.005 µM [4]: 24.3%; cytotoxicity at 72 h, 0.015 µM [4]: 26.4%; cytotoxicity at 72 h, 0.045 µM [4]: 28.1%; cytotoxicity at 72 h, 0.13 µM [4]: 28.4%; cytotoxicity at 72 h, 0.41 µM [4]: 28.9%; cytotoxicity at 72 h, 1.23 µM [4]: 29.2%; cytotoxicity at 72 h, 3.7 µM [4]: 30%; cytotoxicity at 72 h, 11.11 µM [4]: 30.7%; cytotoxicity at 72 h, 33.33 µM [4]: 31.2%; cytotoxicity at 72 h, 100 µM [4]: 32%
Nc1nnc(S(=O)(=O)NC(=O)c2ccc(Cl)cc2)s1 [Compound 4g]	30.6	31.4	32.1	33.2	34.1	34.9	35.2	36.2	37.8	38.2	36.1	35.8	37	37.1	37.8	38.1	39.4	40.3	41.4	41.8	cytotoxicity at 72 h, 0.005 µM [4]: 39.3%; cytotoxicity at 72 h, 0.015 µM [4]: 40.5%; cytotoxicity at 72 h, 0.045 µM [4]: 41.2%; cytotoxicity at 72 h, 0.13 µM [4]: 43.7%; cytotoxicity at 72 h, 0.41 µM [4]: 45.1%; cytotoxicity at 72 h, 1.23 µM [4]: 45.6%; cytotoxicity at 72 h, 3.7 µM [4]: 46.4%; cytotoxicity at 72 h, 11.11 µM [4]: 47.1%; cytotoxicity at 72 h, 33.33 µM [4]: 48.7%; cytotoxicity at 72 h, 100 µM [4]: 50.2%
CC(=O)Nc1ccc(S(=O)(=O)Nc2nnc(S(=O)(=O)NC(=O)c3ccccc3)s2)cc1 [Compound 6a]	26	27.2	28	28.6	29.8	30.4	30.9	31.3	32.1	32.7	31.6	30.5	32.2	32.9	33.6	35.6	36	38.2	38.9	40.9	cytotoxicity at 72 h, 0.005 µM [4]: 26.5%; cytotoxicity at 72 h, 0.015 µM [4]: 26.8%; cytotoxicity at 72 h, 0.045 µM [4]: 28.2%; cytotoxicity at 72 h, 0.13 µM [4]: 29.9%; cytotoxicity at 72 h, 0.41 µM [4]: 30.1%; cytotoxicity at 72 h, 1.23 µM [4]: 32.2%; cytotoxicity at 72 h, 3.7 µM [4]: 33.6%; cytotoxicity at 72 h, 11.11 µM [4]: 35%; cytotoxicity at 72 h, 33.33 µM [4]: 35.2%; cytotoxicity at 72 h, 100 µM [4]: 35.4%
CC(=O)Nc1ccc(S(=O)(=O)Nc2nnc(S(=O)(=O)NC(=O)c3ccc(N)cc3)s2)cc1 [Compound 6c]	33.1	33.3	34.1	35	35.4	36.7	37.1	37.9	38.2	39.4	32.8	30.4	33.6	34.1	34.8	34.9	35.1	36.5	38.3	39	cytotoxicity at 72 h, 0.005 µM [4]: 30.5%; cytotoxicity at 72 h, 0.015 µM [4]: 32%; cytotoxicity at 72 h, 0.045 µM [4]: 32.9%; cytotoxicity at 72 h, 0.13 µM [4]: 33.6%; cytotoxicity at 72 h, 0.41 µM [4]: 34.8%; cytotoxicity at 72 h, 1.23 µM [4]: 35.7%; cytotoxicity at 72 h, 3.7 µM [4]: 36.6%; cytotoxicity at 72 h, 11.11 µM [4]: 37.8%; cytotoxicity at 72 h, 33.33 µM [4]: 38.2%; cytotoxicity at 72 h, 100 µM [4]: 38.8%
